PubChem BioAssay (NCI)
Where “and” joins values, the source holds several entries; their conditions need not be identical. Equal entries are not always repeated.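 Briefly, cells in 96-well plates were exposed to five compound concentrations for 48 h, and endpoints were estimated by linear interpolation. GI50 marks 50% less growth. The concentration for full growth arrest is given as TGI.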

Tests used:
Assay in all cases: NCI tumour cell line growth inhibition, 48 h
NCI-H226 lung = tested on: NCI-H226 lung
M19-MEL melanoma = tested on: M19-MEL melanoma
SR leukemia = tested on: SR leukemia
SF-268 CNS = tested on: SF-268 CNS
SF-295 CNS = tested on: SF-295 CNS
DLD-1 colon = tested on: DLD-1 colon
OVCAR-5 ovarian = tested on: OVCAR-5 ovarian
786-0 renal = tested on: 786-0 renal
HOP-92 NSCLC = tested on: HOP-92 NSCLC
SK-MEL-2 melanoma = tested on: SK-MEL-2 melanoma
EKVX NSCLC = tested on: EKVX NSCLC
MALME-3M melanoma = tested on: MALME-3M melanoma
NCI-H460 lung = tested on: NCI-H460 lung
OVCAR-8 ovarian = tested on: OVCAR-8 ovarian
KM20L2 colon = tested on: KM20L2 colon
MDA-MB-435 = tested on: MDA-MB-435
T-47D breast = tested on: T-47D breast
CAKI-1 renal = tested on: CAKI-1 renal
RXF 393 renal = tested on: RXF 393 renal
SK-MEL-28 melanoma = tested on: SK-MEL-28 melanoma
K-562 leukemia = tested on: K-562 leukemia
A498 renal = tested on: A498 renal
KM12 colon = tested on: KM12 colon
SNB-19 CNS = tested on: SNB-19 CNS
SF-539 CNS = tested on: SF-539 CNS
UACC-257 melanoma = tested on: UACC-257 melanoma
NCI/ADR-RES ovarian = tested on: NCI/ADR-RES ovarian
NCI-H522 lung = tested on: NCI-H522 lung
UACC-62 melanoma = tested on: UACC-62 melanoma
HCT-116 colon = tested on: HCT-116 colon
SNB-75 CNS = tested on: SNB-75 CNS
IGROV1 ovarian = tested on: IGROV1 ovarian
SW-620 colon = tested on: SW-620 colon
UO-31 renal = tested on: UO-31 renal
ACHN renal = tested on: ACHN renal
RPMI-8226 leukemia = tested on: RPMI-8226 leukemia
MCF7 breast = tested on: MCF7 breast
SK-OV-3 ovarian = tested on: SK-OV-3 ovarian
DMS 273 small cell lung = tested on: DMS 273 small cell lung
TK-10 renal = tested on: TK-10 renal
DMS 114 small cell lung = tested on: DMS 114 small cell lung
COLO 205 colon = tested on: COLO 205 colon
DU-145 prostate = tested on: DU-145 prostate
OVCAR-4 ovarian = tested on: OVCAR-4 ovarian
A549 NSCLC = tested on: A549 NSCLC
HT29 colon = tested on: HT29 colon
HS 578T breast = tested on: HS 578T breast
BT-549 breast = tested on: BT-549 breast
HCT-15 colon = tested on: HCT-15 colon
HCC-2998 colon = tested on: HCC-2998 colon
CCRF-CEM leukemia = tested on: CCRF-CEM leukemia
HL-60(TB) leukemia = tested on: HL-60(TB) leukemia
SK-MEL-5 melanoma = tested on: SK-MEL-5 melanoma
MOLT-4 leukemia = tested on: MOLT-4 leukemia
LOX IMVI melanoma = tested on: LOX IMVI melanoma
OVCAR-3 ovarian = tested on: OVCAR-3 ovarian
RXF-631 renal = tested on: RXF-631 renal
HOP-62 NSCLC = tested on: HOP-62 NSCLC
MDA-MB-231 breast = tested on: MDA-MB-231 breast
U251 CNS = tested on: U251 CNS
SN12C renal = tested on: SN12C renal
SNB-78 CNS = tested on: SNB-78 CNS
M14 melanoma = tested on: M14 melanoma
LXFL 529 NSCLC = tested on: LXFL 529 NSCLC

For `CCCCCCCCCC[C@@H](O)[C@@H]1CC[C@@H]([C@@H]2CC[C@@H]([C@@H](O)CCCCCCCCCC[C@H](O)CC3=CC(C)OC3=O)O2)O1` (stereo partly drawn), the TGI (NCI-H226 lung) was 3.49 µM, the TGI (M19-MEL melanoma) was greater than 100 µM and the TGI (SR leukemia) was 6.32 µM. For the same compound, the GI50 (SF-268 CNS) was 3.29 µM, the GI50 (SF-295 CNS) was 0.686 µM and the TGI (SF-295 CNS) was greater than 100 µM. It also gave a TGI (DLD-1 colon) greater than 100 µM, a GI50 (OVCAR-5 ovarian) greater than 75.4 µM and a TGI (OVCAR-5 ovarian) greater than 100 µM. For the same compound, the GI50 (786-0 renal) was 2.49 µM, the TGI (786-0 renal) was 7.95 µM and 12.1 µM and the GI50 (HOP-92 NSCLC) was 10.3 µM. For the same compound, the TGI (HOP-92 NSCLC) was 8.09 µM and 33.8 µM, the GI50 (SK-MEL-2 melanoma) was 1.23 µM and the TGI (SK-MEL-2 melanoma) was 4.68 µM and 31.2 µM. For the same compound, the GI50 (EKVX NSCLC) was 1.98 µM, the TGI (EKVX NSCLC) was 8.5 µM and > 80 µM and the GI50 (MALME-3M melanoma) was 2.13 µM. The TGI (MALME-3M melanoma) was 3.86 µM and 7.42 µM, the GI50 (NCI-H460 lung) was 3.4 µM and the TGI (NCI-H460 lung) was greater than 100 µM. For the same compound, the TGI (OVCAR-8 ovarian) was 8.06 µM and > 54.7 µM, the TGI (KM20L2 colon) was greater than 100 µM and the GI50 (MDA-MB-435) was 4.04 µM. It also gave a TGI (T-47D breast) of 40.4 µM, a GI50 (CAKI-1 renal) of 3.62 µM and a TGI (CAKI-1 renal) greater than 65.3 µM. For the same compound, the TGI (RXF 393 renal) was 9.8 µM, the GI50 (SK-MEL-28 melanoma) was 5.25 µM and the TGI (SK-MEL-28 melanoma) was greater than 28.8 µM. For the same compound, the GI50 (K-562 leukemia) was 2.94 µM, the TGI (K-562 leukemia) was greater than 100 µM and the GI50 (A498 renal) was 8.48 µM. The TGI (A498 renal) was 8.64 µM and 34.9 µM, the GI50 (KM12 colon) was greater than 100 µM and the TGI (SNB-19 CNS) was 24.6 µM. The TGI (SF-539 CNS) was 9.39 µM and 13.3 µM, the GI50 (UACC-257 melanoma) was less than 0.0462 µM and the TGI (UACC-257 melanoma) was 7.89 µM. The TGI (NCI/ADR-RES ovarian) was 5.34 µM and 35.8 µM, the TGI (NCI-H522 lung) was 13.8 µM and the GI50 (UACC-62 melanoma) was 7.27 µM. The TGI (HCT-116 colon) was 28.1 µM, the GI50 (SNB-75 CNS) was 6.08 µM and the TGI (SNB-75 CNS) was 8.58 µM and 18 µM. The GI50 (IGROV1 ovarian) was 4.4 µM, the TGI (IGROV1 ovarian) was 7.47 µM and 36.8 µM and the GI50 (SW-620 colon) was 4.82 µM. The TGI (SW-620 colon) was greater than 100 µM, the GI50 (UO-31 renal) was 2.42 µM and the TGI (UO-31 renal) was 5.24 µM and > 20 µM. For the same compound, the GI50 (ACHN renal) was 2.26 µM, the TGI (ACHN renal) was 5.75 µM and 20.7 µM and the GI50 (RPMI-8226 leukemia) was 7.14 µM. For the same compound, the GI50 (MCF7 breast) was 3.52 µM, the TGI (MCF7 breast) was greater than 100 µM and the TGI (SK-OV-3 ovarian) was 21.9 µM. For the same compound, the TGI (DMS 273 small cell lung) was 13.5 µM, the GI50 (TK-10 renal) was 5.18 µM and the TGI (TK-10 renal) was 9.07 µM and 26 µM. It also gave a TGI (DMS 114 small cell lung) of 11.2 µM, a TGI (COLO 205 colon) greater than 27.5 µM and a GI50 (DU-145 prostate) of 23.5 µM. It also gave a TGI (DU-145 prostate) greater than 100 µM, a TGI (OVCAR-4 ovarian) greater than 51.4 µM and a GI50 (A549 NSCLC) of 3.05 µM. It also gave a TGI (A549 NSCLC) of 38.5 µM, a GI50 (HT29 colon) of 26.4 µM and a GI50 (HS 578T breast) of 14 µM. The TGI (BT-549 breast) was 51.6 µM, the GI50 (HCT-15 colon) was 4.23 µM and the TGI (HCT-15 colon) was greater than 100 µM. The TGI (HCC-2998 colon) was 9.13 µM, the GI50 (CCRF-CEM leukemia) was 2.78 µM and the GI50 (HL-60(TB) leukemia) was 1.54 µM. For the same compound, the TGI (HL-60(TB) leukemia) was 2.96 µM and 5.84 µM, the TGI (SK-MEL-5 melanoma) was 3.11 µM and 2.6 µM and the GI50 (MOLT-4 leukemia) was 2.93 µM. For the same compound, the GI50 (LOX IMVI melanoma) was 4.26 µM, the GI50 (OVCAR-3 ovarian) was 1.47 µM and the TGI (OVCAR-3 ovarian) was 3.34 µM and 22.3 µM. It also gave a TGI (RXF-631 renal) of 19.4 µM, a GI50 (HOP-62 NSCLC) of 4.27 µM and a TGI (HOP-62 NSCLC) of 15.4 µM. The GI50 (MDA-MB-231 breast) was 8.01 µM, the TGI (MDA-MB-231 breast) was 24.6 µM and the TGI (U251 CNS) was greater than 46 µM. For the same compound, the GI50 (SN12C renal) was 16 µM, the TGI (SN12C renal) was greater than 100 µM and the TGI (SNB-78 CNS) was 56.2 µM. The GI50 (M14 melanoma) was 5.47 µM, the TGI (M14 melanoma) was 5.16 µM and 29.6 µM and the TGI (LXFL 529 NSCLC) was 25.6 µM.
